Laboratory results taken from article PMC10712727, “Safety, Tolerability, and Pharmacokinetics of Senaparib, a Novel PARP1/2 Inhibitor, in Chinese Patients With Advanced Solid Tumors: A Phase I Trial” (The Oncologist, 2023).

System: patients with advanced solid tumors
Assay: Safety: treatment-emergent and senaparib-related adverse events graded per NCI CTCAE v4.03
Format: in vivo
Procedure: This phase I, open-label, multicenter, dose-escalation, and dose-expansion study was conducted at three national clinical institutions in China. […] At baseline, all patients enrolled in the dose-escalation phase had to have at least one evaluable lesion, and those in the dose-expansion period had to have at least one measurable lesion, according to Response Evaluation Criteria in Solid Tumors version 1.1 (RECIST v1.1).[16] Entry to the dose-expansion cohort required the presence of a BRCA mutation, with the exception of patients with ovarian carcinoma, fallopian tube carcinoma, and primary peritoneal carcinoma. Full study eligibility criteria are provided in Supplementary Table S1.
Dose escalation was conducted using a modified Fibonacci 3 + 3 method (Supplementary Fig. S1).[17] Patients were administered oral senaparib from a planned starting dose of 2 mg once daily (QD), with preliminary dose escalation to 120 mg via nine dose groups, in order of their entry into the study. At a given dose level, each patient received a single dose of senaparib followed by a 7-day washout period. They then entered a continuous dosing period to confirm the safety and PK profile, in which they received senaparib QD from day 1 to day 21 of each 3-week cycle. Progression to the next higher dose required approval from the Data Safety Monitoring Committee (DSMC) upon review of the safety and PK data of the previous dose. A 50-mg twice-daily (BID) dosing group was added (planned enrollment, n = 6 patients) based on a DSMC review of the safety, PK, and efficacy analysis of the completed QD dose groups in the phase I clinical trial of senaparib dose escalation in Australia (NCT03507543), which commenced prior to the start of this trial.
The dose-expansion period included 3 populations: dose groups in which at least one patient achieved complete response (CR) or partial response (PR) per RECIST v1.1[16] and 1 dose group higher (evaluated for safety), as well as the dose group at the maximum tolerated dose (MTD)/recommended phase II dose (RP2D). Each of these groups included those patients in the respective dose-escalation group plus a planned additional 10 patients (approximately 20 patients in the MTD/RP2D group) with BRCA^mut+ solid tumors (ovarian, breast, or prostate cancer were preferred, and ovarian cancer could be BRCA wild type). Patients received senaparib monotherapy orally QD or BID (50-mg dose only) over each 3-week cycle until disease progression or unacceptable toxicity.
DLTs were predefined toxicities (Supplementary Table S2) recorded over the 7 days following the single-dose administration of senaparib and during the first treatment cycle (day 1-day 21) for each dose group in the dose-escalation period only. The MTD was defined as the maximum dose at which ≤1/6 patients experienced a DLT. Senaparib PK parameters were derived from blood samples collected from patients after the single administration, and at regular intervals during the first cycle of the dose-escalation and dose-expansion periods. Plasma concentrations of senaparib were determined using high-performance liquid chromatography-tandem mass spectrometry. Tumor response was assessed every 6 weeks per RECIST v1.1,[16] recording objective response rate (ORR), disease control rate (DCR), duration of response (DOR), and progression-free survival (PFS) by dose level for all patients and for those harboring BRCA^mut+ tumors.

Question: What does the source list for O=C(c1cc(Cn2c(=O)[nH]c(=O)c3c(F)cccc32)ccc1F)N1CCN(c2ncccn2)CC1 [Senaparib]?
Answer: Appetite decreased TRAE, All (80 mg QD n = 9): 3 (33.3) n (%); Appetite decreased TRAE, Gr≥3 (80 mg QD n = 9): 0 n (%); Asthenia TRAE, All (80 mg QD n = 9): 2 (22.2) n (%); Asthenia TRAE, Gr≥3 (80 mg QD n = 9): 0 n (%); Blood bilirubin increased TRAE, All (80 mg QD n = 9): 2 (22.2) n (%); Blood bilirubin increased TRAE, Gr≥3 (80 mg QD n = 9): 0 n (%); Blood creatinine increased TRAE, All (80 mg QD n = 9): 2 (22.2) n (%); Blood creatinine increased TRAE, Gr≥3 (80 mg QD n = 9): 0 n (%); Hypokalemia TRAE, All (80 mg QD n = 9): 3 (33.3) n (%); Nausea TRAE, All (80 mg QD n = 9): 4 (44.4) n (%); Nausea TRAE, Gr≥3 (80 mg QD n = 9): 0 n (%); Neutrophil count decreased TRAE, All (80 mg QD n = 9): 4 (44.4) n (%); Neutrophil count decreased TRAE, Gr≥3 (80 mg QD n = 9): 1 (11.1) n (%); Platelet count decreased TRAE, All (80 mg QD n = 9): 4 (44.4) n (%); Platelet count decreased TRAE, Gr≥3 (80 mg QD n = 9): 2 (22.2) n (%); SAEs, events (80 mg QD n = 9): 5 n ev; SAEs, patients (80 mg QD n = 9): 5 (55.6) n (%); TEAE Grade ≥3, events (80 mg QD n = 9): 12 n ev; TEAE Grade ≥3, patients (80 mg QD n = 9): 6 (66.7) n (%); TEAEs leading to death, events (80 mg QD n = 9): 1 n ev; TEAEs leading to death, patients (80 mg QD n = 9): 1 (11.1) n (%); TEAEs leading to dose discontinuation, events (80 mg QD n = 9): 4 n ev; TEAEs leading to dose discontinuation, patients (80 mg QD n = 9): 1 (11.1) n (%); TEAEs leading to dose interruption, events (80 mg QD n = 9): 9 n ev; TEAEs leading to dose interruption, patients (80 mg QD n = 9): 4 (44.4) n (%); TEAEs leading to dose reduction, events (80 mg QD n = 9): 3 n ev; TEAEs leading to dose reduction, patients (80 mg QD n = 9): 3 (33.3) n (%); TRAEs Grade ≥3, events (80 mg QD n = 9): 10 n ev; TRAEs Grade ≥3, patients (80 mg QD n = 9): 5 (55.6) n (%); TRAEs, events (80 mg QD n = 9): 109 n ev; TRAEs, patients (80 mg QD n = 9): 9 (100) n (%); Vomiting TRAE, All (80 mg QD n = 9): 2 (22.2) n (%); Vomiting TRAE, Gr≥3 (80 mg QD n = 9): 1 (11.1) n (%); WBC decreased TRAE, All (80 mg QD n = 9): 5 (55.6) n (%); WBC decreased TRAE, Gr≥3 (80 mg QD n = 9): 1 (11.1) n (%); ALT increased TRAE, All (100 mg QD n = 20): 5 (25.0) n (%); ALT increased TRAE, Gr≥3 (100 mg QD n = 20): 0 n (%); AST increased TRAE, All (100 mg QD n = 20): 4 (20.0) n (%); AST increased TRAE, Gr≥3 (100 mg QD n = 20): 1 (5.0) n (%); Anemia TRAE, All (100 mg QD n = 20): 11 (55.0) n (%); Anemia TRAE, Gr≥3 (100 mg QD n = 20): 4 (20.0) n (%); Any TEAE, All (100 mg QD n = 20): 20 (100) n (%); Any TEAE, Gr≥3 (100 mg QD n = 20): 7 (35.0) n (%); Any TEAE, events (100 mg QD n = 20): 158 n ev; Any TEAE, patients (100 mg QD n = 20): 20 (100) n (%); Any TRAE, All (100 mg QD n = 20): 20 (100) n (%); Any TRAE, Gr≥3 (100 mg QD n = 20): 7 (35.0) n (%); Appetite decreased TRAE, All (100 mg QD n = 20): 5 (25.0) n (%); Appetite decreased TRAE, Gr≥3 (100 mg QD n = 20): 0 n (%); Asthenia TRAE, All (100 mg QD n = 20): 5 (25.0) n (%); Asthenia TRAE, Gr≥3 (100 mg QD n = 20): 0 n (%); Blood bilirubin increased TRAE, All (100 mg QD n = 20): 3 (15.0) n (%); Blood bilirubin increased TRAE, Gr≥3 (100 mg QD n = 20): 0 n (%); Blood creatinine increased TRAE, All (100 mg QD n = 20): 2 (10.0) n (%); Blood creatinine increased TRAE, Gr≥3 (100 mg QD n = 20): 0 n (%); Hypokalemia TRAE, All (100 mg QD n = 20): 0 n (%); Hypokalemia TRAE, Gr≥3 (100 mg QD n = 20): 0 n (%); Nausea TRAE, All (100 mg QD n = 20): 4 (20.0) n (%); Nausea TRAE, Gr≥3 (100 mg QD n = 20): 0 n (%); Neutrophil count decreased TRAE, All (100 mg QD n = 20): 5 (25.0) n (%); Neutrophil count decreased TRAE, Gr≥3 (100 mg QD n = 20): 2 (10.0) n (%); Platelet count decreased TRAE, All (100 mg QD n = 20): 6 (30.0) n (%); Platelet count decreased TRAE, Gr≥3 (100 mg QD n = 20): 1 (5.0) n (%); SAEs, events (100 mg QD n = 20): 1 n ev; SAEs, patients (100 mg QD n = 20): 1 (5.0) n (%); TEAE Grade ≥3, events (100 mg QD n = 20): 9 n ev; TEAE Grade ≥3, patients (100 mg QD n = 20): 7 (35.0) n (%); TEAEs leading to death, events (100 mg QD n = 20): 0 n ev; TEAEs leading to death, patients (100 mg QD n = 20): 0 n (%); TEAEs leading to dose discontinuation, events (100 mg QD n = 20): 1 n ev; TEAEs leading to dose discontinuation, patients (100 mg QD n = 20): 1 (5.0) n (%); TEAEs leading to dose interruption, events (100 mg QD n = 20): 8 n ev; TEAEs leading to dose interruption, patients (100 mg QD n = 20): 6 (30.0) n (%); TEAEs leading to dose reduction, events (100 mg QD n = 20): 6 n ev; TEAEs leading to dose reduction, patients (100 mg QD n = 20): 4 (20.0) n (%); TRAEs Grade ≥3, events (100 mg QD n = 20): 9 n ev; TRAEs Grade ≥3, patients (100 mg QD n = 20): 7 (35.0) n (%); TRAEs, events (100 mg QD n = 20): 144 n ev; TRAEs, patients (100 mg QD n = 20): 20 (100) n (%); Vomiting TRAE, All (100 mg QD n = 20): 5 (25.0) n (%); Vomiting TRAE, Gr≥3 (100 mg QD n = 20): 0 n (%); WBC decreased TRAE, All (100 mg QD n = 20): 9 (45.0) n (%); WBC decreased TRAE, Gr≥3 (100 mg QD n = 20): 1 (5.0) n (%); ALT increased TRAE, All (120 mg QD n = 4): 2 (50.0) n (%); ALT increased TRAE, Gr≥3 (120 mg QD n = 4): 1 (25.0) n (%); AST increased TRAE, All (120 mg QD n = 4): 2 (50.0) n (%); AST increased TRAE, Gr≥3 (120 mg QD n = 4): 0 n (%); Anemia TRAE, All (120 mg QD n = 4): 3 (75.0) n (%); Anemia TRAE, Gr≥3 (120 mg QD n = 4): 1 (25.0) n (%); Any TEAE, All (120 mg QD n = 4): 4 (100) n (%); Any TEAE, Gr≥3 (120 mg QD n = 4): 3 (75.0) n (%); Any TEAE, events (120 mg QD n = 4): 52 n ev; Any TEAE, patients (120 mg QD n = 4): 4 (100) n (%); Any TRAE, All (120 mg QD n = 4): 4 (100) n (%); Any TRAE, Gr≥3 (120 mg QD n = 4): 3 (75.0) n (%); Appetite decreased TRAE, All (120 mg QD n = 4): 1 (25.0) n (%); Appetite decreased TRAE, Gr≥3 (120 mg QD n = 4): 0 n (%); Asthenia TRAE, All (120 mg QD n = 4): 2 (50.0) n (%); Asthenia TRAE, Gr≥3 (120 mg QD n = 4): 0 n (%); Blood bilirubin increased TRAE, All (120 mg QD n = 4): 2 (50.0) n (%); Blood bilirubin increased TRAE, Gr≥3 (120 mg QD n = 4): 1 (25.0) n (%); Blood creatinine increased TRAE, All (120 mg QD n = 4): 1 (25.0) n (%); Blood creatinine increased TRAE, Gr≥3 (120 mg QD n = 4): 0 n (%); Hypokalemia TRAE, All (120 mg QD n = 4): 0 n (%); Hypokalemia TRAE, Gr≥3 (120 mg QD n = 4): 0 n (%); Nausea TRAE, All (120 mg QD n = 4): 1 (25.0) n (%); Nausea TRAE, Gr≥3 (120 mg QD n = 4): 0 n (%); Neutrophil count decreased TRAE, All (120 mg QD n = 4): 1 (25.0) n (%); Neutrophil count decreased TRAE, Gr≥3 (120 mg QD n = 4): 0 n (%); Platelet count decreased TRAE, All (120 mg QD n = 4): 1 (25.0) n (%); Platelet count decreased TRAE, Gr≥3 (120 mg QD n = 4): 0 n (%); SAEs, events (120 mg QD n = 4): 1 n ev; SAEs, patients (120 mg QD n = 4): 1 (25.0) n (%); TEAE Grade ≥3, events (120 mg QD n = 4): 6 n ev; TEAE Grade ≥3, patients (120 mg QD n = 4): 3 (75.0) n (%); TEAEs leading to death, events (120 mg QD n = 4): 0 n ev
